Laboratory results as given in US10358449B2, “Xanthine derivative” (priority 2015, dated 2019).
Structures can show the parent of a compound that is named as a salt. Where two headings read alike, the source gives them in different places. Marks after values point to notes of the source that are not given here. Values belong to the molecule of their own block, whether it stands above or below them.

How the values were obtained:
[1] = biological target: humanized recombinant DPP-IV (Homo sapiens (Human), UniProt P27487); assay: DPP-IV activity inhibition test in vitro (DPPIV-Glo luminescence); type: biochemical; settings: DPP-IV, Table 1; read-out: IC50
Method: (1) DPP-IV Activity Inhibition Tests In Vitro
DPP-IV could hydrolyze Gly-Pro-Aminoluciferin at room temperature to generate Aminoluciferin, which could produce “glow type” luminescent signals in a luciferase reaction system provided by a DPPIV-Glo™ protease test kit, and the strength of the luminescent signals was in direct proportion to the enzyme activity of DPP-IV.
2.1 humanized recombinant DPP-IV: SIGMA product, article number D3446-10UG.
2.2 DPPIV-Glo™ protease detection kit: Promega product, article number G8351.
3.2 Diluting dipeptidyl peptidase IV (Sigma) to 0.2 ng/ml solution with 10 mM Tris-HCl (pH 8.0), adding the samples to be detected in, per well 25 μl. […] Experimental Results

normal mice (C57BL/6J) = assay: Oral glucose tolerance test of normal mice; type: in vivo, mouse; parameters: AUC0-120 min: unit not given beside the values
Method: (§1) 2. Experimental method: normal mice, obese mice and diabetic mice were used for studying glucose tolerance tests Experimental process of OGTT (Oral Glucose Tolerance Test): fasting for 6 hours before the test begins, 60 min after drug administration, glucose was administrated by gavage (drug concentration 0.6 mg/ml, administration volume 5 ml/kg) (2 g/kg glucose was administrated to diabetic mice; 2 g/kg glucose was administrated to obese mice; and 5 g/kg glucose was administrated to normal mice), blood glucose values at 0 min, 15 min, 30 min, 45 min, 60 min and 120 min are respectively determined after glucose administration, […]

[2] = tested on: obese mice (B6.Cg-Lepob/JNju); assay: Glucose tolerance test of obese mice; type: in vivo, mouse; parameters: AUC0-120 min: unit not given beside the values
Method: as §1

[3] = tested on: diabetic mice (B6.BKS(D)-Leprdb/JNju); assay: Glucose tolerance test of diabetic mice (Table 5); type: in vivo, mouse; parameters: AUC0-120 min: unit not given beside the values
Method: as §1

[4] = CD-1 mouse, 5 mg/kg, oral administration; cited from earlier work
[5] = man, 5 mg/subject; cited from earlier work

humanized recombinant DPP-IV, sequence (P27487 whole entry): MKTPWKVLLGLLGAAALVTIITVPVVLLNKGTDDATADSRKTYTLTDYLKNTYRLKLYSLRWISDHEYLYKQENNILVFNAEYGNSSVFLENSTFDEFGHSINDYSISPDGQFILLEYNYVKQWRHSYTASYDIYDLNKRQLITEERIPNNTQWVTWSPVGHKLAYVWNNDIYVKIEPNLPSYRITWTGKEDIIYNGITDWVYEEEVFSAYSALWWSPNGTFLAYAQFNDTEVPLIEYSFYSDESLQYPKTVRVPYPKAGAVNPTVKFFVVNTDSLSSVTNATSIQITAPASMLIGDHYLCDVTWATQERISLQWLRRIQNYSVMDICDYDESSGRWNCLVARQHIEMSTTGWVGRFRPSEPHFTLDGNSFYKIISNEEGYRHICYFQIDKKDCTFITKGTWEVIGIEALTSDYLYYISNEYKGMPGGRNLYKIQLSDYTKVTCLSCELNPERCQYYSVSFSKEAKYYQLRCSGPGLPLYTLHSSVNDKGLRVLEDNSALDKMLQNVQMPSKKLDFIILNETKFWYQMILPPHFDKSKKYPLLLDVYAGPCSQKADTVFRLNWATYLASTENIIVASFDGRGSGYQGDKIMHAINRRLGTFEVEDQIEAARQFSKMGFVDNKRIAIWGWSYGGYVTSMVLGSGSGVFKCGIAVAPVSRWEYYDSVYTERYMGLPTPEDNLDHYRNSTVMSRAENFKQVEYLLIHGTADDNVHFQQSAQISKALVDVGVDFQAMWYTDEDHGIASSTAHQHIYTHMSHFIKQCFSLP

- IC50 [1]: 0.21 nM
Structure (SMILES): CC#CCn1c(N2CCC[C@@H](N)C2)nc2c1c(=O)n(Cc1cccc(F)c1C#N)c(=O)n2C [Compound I-1, 1-[(6-fluorine-benzonitrile-2-yl)methyl]-3-methyl-7-(2-butyne-1-yl)-8-[(R)-3-amino-piperidine-1-yl]-xanthine]

- IC50 [1]: 2.1 nM
Structure (SMILES): CC#CCn1c(N2CCC[C@@H](N)C2)nc2c1c(=O)n(Cc1cc(F)c(F)cc1C#N)c(=O)n2C [Compound I-2, 1-[(4,5-difluoro-benzonitrile-2-yl)methyl]-3-methyl-7-(2-butyne-1-yl)-8-[(R)-3-amino-piperidine-1-yl]-xanthine]

- IC50 [1]: 4.8 nM
Structure (SMILES): CC#CCn1c(N2CCC[C@@H](N)C2)nc2c1c(=O)n(Cc1ncccc1C(=O)OC)c(=O)n2C [Compound I-4, 1-[(3-methyl formate-pyridine-2-yl)methyl]-3-methyl-7-(2-butyne-1-yl)-8-[(R)-3-amino-piperidine-1-yl]-xanthine]

Structure (SMILES): CC#CCn1c(N2CCC[C@@H](N)C2)nc2c1c(=O)n(Cc1nc(C)c3ccccc3n1)c(=O)n2C [Linagliptin, linagliptin, reference compound]
- Blood glucose concentration 0 min (normal mice (C57BL/6J); normal mice C57BL/6J, drug at -60 min (0.6 mg/ml, 5 ml/kg), 5 g/kg glucose at 0 min): 8.64* mmol/L
- Blood glucose concentration 15 min (normal mice (C57BL/6J); normal mice, 15 min after glucose): 14.7*** mmol/L
- Blood glucose concentration 30 min (normal mice (C57BL/6J); normal mice, 30 min after glucose): 10.5*** mmol/L
- Blood glucose concentration 45 min (normal mice (C57BL/6J); normal mice, 45 min after glucose): 9.5*** mmol/L
- Blood glucose concentration 60 min (normal mice (C57BL/6J); normal mice, 60 min after glucose): 10.14*** mmol/L
- Blood glucose concentration 120 min (normal mice (C57BL/6J); normal mice, 120 min after glucose): 7.72 mmol/L
- AUC0-120 min (normal mice (C57BL/6J); normal mice, blood glucose AUC): 1198***
- Blood glucose concentration 0 min ([2]; obese mice B6.Cg-Lepob/JNju, drug at -60 min (0.6 mg/ml, 5 ml/kg), 2 g/kg glucose at 0 min): 10.95 mmol/L
- Blood glucose concentration 15 min ([2]; obese mice, 15 min after glucose): 31.73 mmol/L
- Blood glucose concentration 30 min ([2]; obese mice, 30 min after glucose): 27.98 mmol/L
- Blood glucose concentration 45 min ([2]; obese mice, 45 min after glucose): 20.50 mmol/L
- Blood glucose concentration 60 min ([2]; obese mice, 60 min after glucose): 16.00* mmol/L
- Blood glucose concentration 120 min ([2]; obese mice, 120 min after glucose): 11.50 mmol/L
- AUC0-120 min ([2]; obese mice, blood glucose AUC): 2230
- Blood glucose concentration 0 min ([3]; diabetic mice B6.BKS(D)-Leprdb/JNju, drug at -60 min (0.6 mg/ml, 5 ml/kg), 2 g/kg glucose at 0 min): 12.09 mmol/L
- Blood glucose concentration 15 min ([3]; diabetic mice, 15 min after glucose): 29.98* mmol/L
- Blood glucose concentration 30 min ([3]; diabetic mice, 30 min after glucose): 20.15*** mmol/L
- Blood glucose concentration 45 min ([3]; diabetic mice, 45 min after glucose): 16.60*** mmol/L
- Blood glucose concentration 60 min ([3]; diabetic mice, 60 min after glucose): 15.83** mmol/L
- Blood glucose concentration 120 min ([3]; diabetic mice, 120 min after glucose): 10.05* mmol/L
- AUC0-120 min ([3]; diabetic mice, blood glucose AUC): 1987**
- bioavailability (F) [4]: 18.4%
- bioavailability (F) [5]: 30%
